The source made the active and inactive calls.
Assays:
[1] = cells; type: functional, cell-based
[2] = cells; type: functional, cell-based; remark: listed apart in the source
[3] = viability of HCT116 lacking mutant beta-catenin – cell-based, human colon tumor, dose response (AID 1045); type: functional;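 note: HCT116 colon tumor cells with beta catenin knocked out; cells exposed to compound for 60 hours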
[4] = NIH3T3 cell viability loss – ATP luminescence, mouse fibroblasts, counter-screen, dose response (AID 2010); type: functional, cell-based;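 note: cells exposed to compound for about 90 hours before reading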
[5] = target: 26S proteasome non-ATPase regulatory subunit 14 (Homo sapiens, UniProt O00487); experiment: inhibition of proteasome subunit RPN11 – biochemical, fluorescence polarization, uHTS hits, confirmation (AID 602368); type: functional
[6] = target: Cytochrome P450 2C19 (Homo sapiens, UniProt P33261); experiment: Cytochrome panel assay with activity outcomes. Panel member name: p450-cyp2c19 Compounds with AC50 equal or less than 10 uM are considered active; type: functional; conditions: read-out: AC50
[7] = target: T1, Microphthalmia-associated transcription factor (Homo sapiens, UniProt O75030); experiment: reducers of TRPM1 reporter luminescence, concentration series – cell-based, SK-MEL-5, cherry-picked, set 3, MITF inhibitor project, dose response (AID 493073); type: functional;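 note: SK-MEL-5 melanoma cells with luciferase driven by the MITF target TRPM1 promoter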
T1 sequence (O75030 whole entry): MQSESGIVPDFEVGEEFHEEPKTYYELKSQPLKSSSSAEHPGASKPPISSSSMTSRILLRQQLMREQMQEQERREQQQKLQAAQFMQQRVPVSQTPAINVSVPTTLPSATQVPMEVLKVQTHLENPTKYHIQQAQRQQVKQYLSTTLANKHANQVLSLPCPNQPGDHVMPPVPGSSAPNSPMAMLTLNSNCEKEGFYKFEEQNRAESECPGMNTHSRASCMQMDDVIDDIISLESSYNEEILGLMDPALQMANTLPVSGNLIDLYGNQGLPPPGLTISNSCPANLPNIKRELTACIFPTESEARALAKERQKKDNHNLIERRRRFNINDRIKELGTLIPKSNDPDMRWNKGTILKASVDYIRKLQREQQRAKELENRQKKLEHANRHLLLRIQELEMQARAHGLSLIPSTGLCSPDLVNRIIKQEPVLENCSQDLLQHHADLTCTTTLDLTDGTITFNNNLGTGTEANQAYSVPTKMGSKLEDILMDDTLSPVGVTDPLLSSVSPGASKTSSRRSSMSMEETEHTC

[8] = viability of PTEN-deleted HCT116 cells – cell-based, HCT116 PTEN knockout, dose response (AID 1047); type: functional;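 note: HCT116 colon tumor cells with PTEN knocked out; cells exposed to compound for 60 hours before readout; potency for loss of cell viability measured by luminescence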
[9] = target: 72 kDa type IV collagenase (Homo sapiens, UniProt P08253); experiment: Dose Response validation of uHTS RPN11 inhibitor hits using a MMP-2 Fluorescence assay.; type: functional
[10] = target: Prothrombin (Bos taurus, UniProt P00735); experiment: thrombin protease inhibitors – biochemical, fluorescence polarization, uHTS hits, dose response (AID 602369); type: functional
[11] = Trypanosoma cruzi growth suppression in host cells – NIH3T3 host cells, beta-gal luminescence, confirmation (AID 2044); type: functional, cell-based;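 note: intracellular parasites grown in NIH/3T3 mouse fibroblasts as host cells; luminescent beta-galactosidase reporter signal from transgenic T. cruzi replicating inside host cells; inhibitors lower the luminescence signal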
[12] = target: Cytochrome P450 3A4 (Homo sapiens, UniProt P08684);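 note: CYP3A4 tested as one member of a cytochrome P450 panel screen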
[13] = NIH-3T3 fibroblast cytotoxicity, dose response, cytotoxicity control, cell-based, fluorescence, Alamar Blue, secondary assay (AID 2327); type: functional;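 note: NIH-3T3 mouse fibroblasts cultured with fluconazole at 8 µg/mL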
[14] = test system: INS1; experiment: INS-1E survival protection against cytokine death – cell-based, luminescence, retest, dose response (AID 449756); type: functional; conditions: Rattus norvegicus;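 note: cell death triggered by IL-1 beta plus TNF-alpha plus IFN-gamma mixture; protective hits raise ATP signal compared with cytokine alone wells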
[15] = fluconazole-exposed Candida albicans growth modulators – fluorescence, retest, confirmation (AID 2467); type: functional, cell-based
[16] = target: T2, Probable nicotinate-nucleotide adenylyltransferase (Staphylococcus aureus (strain N315), UniProt P65502); type: functional, Staphylococcus aureus subsp. aureus N315;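 for IC50 Mean: confirmatory dose-response retesting of NadD inhibitor hits first found in an ultra-high-throughput screen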
[17] = target: T2, Probable nicotinate-nucleotide adenylyltransferase; type: functional, Staphylococcus aureus subsp. aureus N315; conditions: read-out: IC50_Mean
[18] = target: T3, Low molecular weight phosphotyrosine protein phosphatase (Homo sapiens, UniProt P24666); type: functional; conditions: read-out: IC50_Mean;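 note: Dose-response confirmation assay measuring inhibition of LMPTP enzyme activity by fluorescence intensity read-out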
T3 sequence (P24666 whole entry): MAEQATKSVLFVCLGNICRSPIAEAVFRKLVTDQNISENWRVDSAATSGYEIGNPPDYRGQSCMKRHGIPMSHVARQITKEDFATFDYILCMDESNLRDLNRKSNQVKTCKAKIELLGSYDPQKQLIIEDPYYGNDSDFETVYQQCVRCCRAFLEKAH

[19] = off-target signal loss in HeLa-CEM21 co-culture – HeLa F-luc CTL cells, cherry-picked, counter-screen for HIV-1 Env fusion inhibitor project, dose response (AID 652040); type: functional, cell-based;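 note: potency for signal decrease marking cytotoxic or nonspecific inhibition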
[20] = HIV-1 AD8 envelope cell-cell fusion blockers – cherry-pick, dose response (AID 652062); type: functional, cell-based;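 note: luciferase signal from cell-cell fusion driven by HIV-1 clade B AD8 Env; potency is for inhibitors of fusion seen as a drop in luminescence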
[21] = blockers of HIV-1 ZM109 envelope-driven cell-cell fusion – HeLa effector, CEM target cells, luciferase, cherry-pick, dose response (AID 652058); type: functional, cell-based;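 note: luciferase signal from HIV-1 Env mediated cell-cell fusion of effector and target cells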
[22] = viability loss in CEM21 cells – cell-based, CellTiter-Glo luminescence, cherry-picked, cytotoxicity control for viral fusion inhibitor project, dose response (AID 652042); type: functional;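 note: potency for signal decrease meaning cytotoxicity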
[23] = target: Paired box protein Pax-8 (Homo sapiens, UniProt Q06710); experiment: PAX8 transcriptional activity inhibition in RMG-I – RMG-I cells, luciferase, cherry-pick, dose response (AID 687027); type: functional, cell-based;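 note: luciferase reporter driven by Pax8 target thyroperoxidase promoter measured by SteadyGlo luminescence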
[24] = general cell-killing toxicity readout – plate reader, dry powder samples, cytotoxicity control for PAX8 inhibitor project, dose response (AID 743021); type: functional, cell-based
[25] = blockers of HIV-1 envelope-mediated cell-cell fusion – cherry-pick, dose response (AID 652057); type: functional, cell-based
[26] = general mammalian cell viability loss – inhibitor set, cherry-pick, set 2, cytotoxicity control for miR-122 modulator project, dose response (AID 720697); type: functional, cell-based

T2 sequence (P65502 whole entry): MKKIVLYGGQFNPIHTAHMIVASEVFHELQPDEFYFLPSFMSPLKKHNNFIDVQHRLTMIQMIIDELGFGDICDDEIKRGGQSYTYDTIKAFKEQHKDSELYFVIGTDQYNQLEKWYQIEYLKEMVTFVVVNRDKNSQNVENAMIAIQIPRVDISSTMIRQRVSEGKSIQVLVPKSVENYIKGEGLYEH
Chain of 72 kDa type IV collagenase (P08253 whole entry): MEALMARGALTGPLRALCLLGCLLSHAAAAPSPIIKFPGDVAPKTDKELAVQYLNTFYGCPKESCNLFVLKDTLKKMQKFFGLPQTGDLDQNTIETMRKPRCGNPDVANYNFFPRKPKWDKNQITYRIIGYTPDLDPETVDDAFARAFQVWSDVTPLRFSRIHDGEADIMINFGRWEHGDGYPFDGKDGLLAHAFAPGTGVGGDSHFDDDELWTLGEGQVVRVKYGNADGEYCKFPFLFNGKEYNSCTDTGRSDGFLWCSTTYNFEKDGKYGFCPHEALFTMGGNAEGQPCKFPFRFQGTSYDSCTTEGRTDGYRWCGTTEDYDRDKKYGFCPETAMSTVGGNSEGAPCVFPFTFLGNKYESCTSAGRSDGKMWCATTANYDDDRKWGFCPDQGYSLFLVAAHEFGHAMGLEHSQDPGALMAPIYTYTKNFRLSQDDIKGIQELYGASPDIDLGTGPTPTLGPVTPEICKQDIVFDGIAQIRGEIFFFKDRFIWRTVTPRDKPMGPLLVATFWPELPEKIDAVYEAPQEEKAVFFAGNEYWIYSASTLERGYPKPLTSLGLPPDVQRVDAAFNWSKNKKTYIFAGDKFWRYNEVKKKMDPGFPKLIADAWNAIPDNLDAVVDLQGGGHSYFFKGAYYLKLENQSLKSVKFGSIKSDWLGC
Chain of 26S proteasome non-ATPase regulatory subunit 14 (O00487 whole entry): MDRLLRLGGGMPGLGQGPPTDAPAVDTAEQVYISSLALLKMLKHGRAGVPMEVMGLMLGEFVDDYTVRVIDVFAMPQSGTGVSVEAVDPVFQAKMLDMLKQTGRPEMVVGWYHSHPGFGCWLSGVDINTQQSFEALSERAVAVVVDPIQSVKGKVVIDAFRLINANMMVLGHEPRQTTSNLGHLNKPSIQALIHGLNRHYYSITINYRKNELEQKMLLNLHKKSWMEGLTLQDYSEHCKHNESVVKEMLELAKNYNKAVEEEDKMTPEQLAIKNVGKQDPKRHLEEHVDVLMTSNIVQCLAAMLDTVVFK
Chain of Cytochrome P450 3A4 (P08684 whole entry): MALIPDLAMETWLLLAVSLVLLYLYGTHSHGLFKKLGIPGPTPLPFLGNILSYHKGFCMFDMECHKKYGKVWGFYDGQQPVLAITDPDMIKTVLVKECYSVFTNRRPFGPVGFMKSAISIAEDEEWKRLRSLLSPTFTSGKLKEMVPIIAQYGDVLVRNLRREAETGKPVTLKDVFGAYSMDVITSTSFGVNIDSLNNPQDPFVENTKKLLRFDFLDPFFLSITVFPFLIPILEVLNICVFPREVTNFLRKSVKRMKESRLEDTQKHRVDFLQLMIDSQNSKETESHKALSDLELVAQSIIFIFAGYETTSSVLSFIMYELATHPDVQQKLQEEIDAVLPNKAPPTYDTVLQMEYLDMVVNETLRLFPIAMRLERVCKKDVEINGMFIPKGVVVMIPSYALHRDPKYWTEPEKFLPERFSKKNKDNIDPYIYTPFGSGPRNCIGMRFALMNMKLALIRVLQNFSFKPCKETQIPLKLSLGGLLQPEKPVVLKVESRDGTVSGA
Chain of Cytochrome P450 2C19 (P33261 whole entry): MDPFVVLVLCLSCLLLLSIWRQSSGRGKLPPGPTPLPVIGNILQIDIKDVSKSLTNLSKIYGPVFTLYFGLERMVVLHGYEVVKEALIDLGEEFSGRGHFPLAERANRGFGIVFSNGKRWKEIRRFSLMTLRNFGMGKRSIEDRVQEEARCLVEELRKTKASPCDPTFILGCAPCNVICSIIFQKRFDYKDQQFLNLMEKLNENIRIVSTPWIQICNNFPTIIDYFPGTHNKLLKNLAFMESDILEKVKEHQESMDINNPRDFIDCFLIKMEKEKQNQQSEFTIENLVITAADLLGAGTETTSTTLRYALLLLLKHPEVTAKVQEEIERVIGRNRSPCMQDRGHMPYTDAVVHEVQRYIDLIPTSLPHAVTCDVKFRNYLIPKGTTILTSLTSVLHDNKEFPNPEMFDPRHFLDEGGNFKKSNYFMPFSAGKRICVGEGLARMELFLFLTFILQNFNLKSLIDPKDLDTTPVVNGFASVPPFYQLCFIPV
Chain of Paired box protein Pax-8 (Q06710 whole entry): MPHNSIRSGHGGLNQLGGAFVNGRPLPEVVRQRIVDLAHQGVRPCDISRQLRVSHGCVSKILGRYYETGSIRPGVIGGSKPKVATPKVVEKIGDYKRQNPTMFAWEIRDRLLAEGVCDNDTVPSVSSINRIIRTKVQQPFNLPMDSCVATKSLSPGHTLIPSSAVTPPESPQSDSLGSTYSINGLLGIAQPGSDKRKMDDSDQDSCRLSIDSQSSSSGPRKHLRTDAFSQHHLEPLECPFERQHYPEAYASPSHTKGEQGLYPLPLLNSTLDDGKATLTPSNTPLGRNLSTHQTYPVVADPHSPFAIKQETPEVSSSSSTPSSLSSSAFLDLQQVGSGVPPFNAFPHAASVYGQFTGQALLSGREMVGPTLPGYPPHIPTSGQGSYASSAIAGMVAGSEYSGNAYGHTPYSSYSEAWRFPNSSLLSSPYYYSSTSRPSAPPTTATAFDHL

For O=C(NCCc1ccccc1)Oc1ccc(Cl)cc1, the IC50 [1] was > 29.9 µM (inactive) and the EC50 [2] was > 29.9 µM (inactive).

In the case of Cc1cc2ncn(/N=C/c3ccc([N+](=O)[O-])o3)c2cc1C, the EC50 [3] is reported as 5.7 µM (active), the EC50 [4] is reported as 15.5 µM (active) and the IC50 [5] is reported as 73.6 µM (active). For the same molecule, the AC50 [6] was 1.12 µM (inconclusive), the AC50 [7] was 21.9 µM (active) and the EC50 [8] was 6.44 µM (active). The IC50 [9] was > 100 µM (inactive), the IC50 [10] was 51.4 µM (active) and the EC50 [11] was 0.195 µM (active). The AC50 [12] was 15.8 µM (inconclusive).

With O=C(N/N=C/c1sc(N2CCOCC2)nc1-c1ccccc1)c1cccc(S(=O)(=O)N2CCCC2)c1 the EC50 [13] was 49.2 µM (active), the AC50 [14] was 2.44 µM (active) and the EC50 [15] was 3.31 µM (active). For the same molecule, the IC50 [5] was 19.6 µM (active), the IC50 [9] was > 100 µM (inactive) and the IC50 [10] was 24.5 µM (active).

For O=C(N/N=C/C=C\c1ccccc1[N+](=O)[O-])c1cc(-c2ccc3ccccc3c2)[nH]n1, the IC50 [16] was 22.5 µM (active) and the IC50 [17] was 74.3 µM (active).

For Cc1cc(N2CCN(C(C(=O)NC3CCCC3)c3ccco3)CC2)c2ccccc2n1 (centres undefined), the IC50 [18] was 27.3 µM (inactive).

For CC(=NNc1ccc2ccccc2n1)c1ccccn1, the AC50 [19] was 8.41 µM (active), the AC50 [20] was 5 µM (active) and the AC50 [21] was 10.7 µM (active). For the same molecule, the AC50 [22] was 0.399 µM (active), the AC50 [23] was 2.27 µM (active) and the AC50 [24] was 59.5 µM (active). For the same molecule, the AC50 [25] was 3.13 µM (active).

For CNC(=O)C[C@H]1CC[C@@H]2[C@H](COc3ccc(NC(=O)C(C)C)cc3C(=O)N2C)O1, the AC50 [26] was 9.62 µM (active).

Source: ChEMBL document CHEMBL1201862, “PubChem BioAssay data set” (2004)
